Test results taken from the supplement of paper PMC10307832.

How the values were obtained:
Assay in all cases: relative viability (nuclei count vs DMSO), 5 days (fraction); higher = more cells survive
EHT 1864 + Tozasertib = compound: C1COCCN1CC2=CC(=O)C(=CO2)OCCCCCSC3=C4C=CC(=CC4=NC=C3)C(F)(F)F [EHT 1864] + Cc1cc(Nc2cc(N3CCN(C)CC3)nc(Sc3ccc(NC(=O)C4CC4)cc3)n2)n[nH]1 [Tozasertib] (partner 0.1 µM)
How it was run: (§1)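 After 5 days of treatment, lung cancer cells in 1536-well plates were fixed and stained in a single step (final 0.05% Triton X-100, 1% formaldehyde, 1 ug/ml Hoechst) and their nuclei counted on 4× images. Treatment had been applied by pin tool the day after seeding as one drug alone or as a fixed anchor-drug dose with five library-drug doses (not always all listed) in √10 steps. Relative viability is the nuclei count of treated wells divided by that of vehicle wells, and values are medians of duplicate plates.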

EHT 1864 + Foretinib = compound: C1COCCN1CC2=CC(=O)C(=CO2)OCCCCCSC3=C4C=CC(=CC4=NC=C3)C(F)(F)F [EHT 1864] + COc1cc2c(Oc3ccc(NC(=O)C4(C(=O)Nc5ccc(F)cc5)CC4)cc3F)ccnc2cc1OCCCN1CCOCC1 [Foretinib] (partner 0.25 µM)
How it was run: as §1

EHT 1864 + AZD7762 = compound: C1COCCN1CC2=CC(=O)C(=CO2)OCCCCCSC3=C4C=CC(=CC4=NC=C3)C(F)(F)F [EHT 1864] + NC(=O)Nc1cc(-c2cccc(F)c2)sc1C(=O)N[C@H]1CCCNC1 [AZD7762] (partner 0.2 µM)
How it was run: as §1

EHT 1864 + Luminespib = compound: C1COCCN1CC2=CC(=O)C(=CO2)OCCCCCSC3=C4C=CC(=CC4=NC=C3)C(F)(F)F [EHT 1864] + CCNC(=O)c1noc(-c2cc(C(C)C)c(O)cc2O)c1-c1ccc(CN2CCOCC2)cc1 [Luminespib] (partner 0.01 µM)
How it was run: as §1

Cell Line | relative viability (EHT 1864 + Tozasertib; first compound 0.04 µM) | relative viability (EHT 1864 + Tozasertib; first compound 0.1265 µM) | relative viability (EHT 1864 + Tozasertib; first compound 0.4 µM) | relative viability (EHT 1864 + Tozasertib; first compound 1.265 µM) | relative viability (EHT 1864 + Tozasertib; first compound 4 µM) | relative viability (EHT 1864 + Foretinib; first compound 0.04 µM) | relative viability (EHT 1864 + Foretinib; first compound 0.1265 µM) | relative viability (EHT 1864 + Foretinib; first compound 0.4 µM) | relative viability (EHT 1864 + Foretinib; first compound 1.265 µM) | relative viability (EHT 1864 + Foretinib; first compound 4 µM) | relative viability (EHT 1864 + AZD7762; first compound 0.04 µM) | relative viability (EHT 1864 + AZD7762; first compound 0.1265 µM) | relative viability (EHT 1864 + AZD7762; first compound 0.4 µM) | relative viability (EHT 1864 + AZD7762; first compound 1.265 µM) | relative viability (EHT 1864 + AZD7762; first compound 4 µM) | relative viability (EHT 1864 + Luminespib; first compound 0.04 µM) | relative viability (EHT 1864 + Luminespib; first compound 0.1265 µM) | relative viability (EHT 1864 + Luminespib; first compound 0.4 µM) | relative viability (EHT 1864 + Luminespib; first compound 1.265 µM) | relative viability (EHT 1864 + Luminespib; first compound 4 µM)
201T | 0.916 | 0.912 | 0.983 | 0.853 | 0.864 | 0.964 | 1.05 | 1.16 | 0.99 | 1.08 | 0.578 | 0.575 | 0.61 | 0.594 | 0.652 | 0.994 | 1.06 | 1.01 | 0.891 | 0.946
A-427 | 0.198 | 0.232 | 0.208 | 0.189 | 0.217 | 1.03 | 0.942 | 0.986 | 1.05 | 0.968 | 0.835 | 0.775 | 0.738 | 0.762 | 0.791 | 0.876 | 0.952 | 0.899 | 0.942 | 0.906
ABC-1 | 0.15 | 0.164 | 0.185 | 0.189 | 0.195 | 1.22 | 1.06 | 1.03 | 0.954 | 0.834 | 0.977 | 0.805 | 0.623 | 0.843 | 1.52 | 0.816 | – | 0.48 | 0.387 | 0.422
BEN | 0.544 | 0.433 | 0.547 | 0.461 | 0.481 | 0.702 | 0.585 | 0.827 | 0.484 | 0.771 | 0.681 | 0.632 | 0.86 | 0.665 | 0.802 | 0.264 | 0.17 | 0.527 | 0.333 | 0.533
CAL-12T | 0.39 | 0.294 | 0.302 | 0.292 | 0.216 | 1 | 1.05 | 1 | 0.852 | 0.908 | 0.689 | 0.543 | 0.624 | 0.517 | 0.516 | 0.563 | 0.178 | 0.366 | 0.373 | 0.46
ChaGo-K-1 | 0.215 | 0.221 | 0.228 | 0.207 | 0.204 | 0.858 | 0.888 | 0.809 | 0.895 | 0.814 | 0.881 | 0.834 | 0.956 | 0.871 | 0.907 | 0.487 | 0.604 | 0.703 | 0.547 | 0.559
EKVX | 0.4 | 0.371 | 0.369 | 0.351 | 0.349 | 1.09 | 0.758 | 0.715 | 0.661 | 0.592 | 0.685 | 0.661 | 0.484 | 0.764 | 0.684 | 0.9 | 0.871 | 0.834 | 0.836 | 0.885
EMC-BAC-2 | 0.304 | 0.253 | 0.314 | 0.236 | 0.26 | 0.967 | 1.06 | 1.01 | 1.01 | 0.951 | 1.24 | 0.944 | 1.1 | 1.09 | 0.974 | 1.12 | 1.09 | 1.16 | 1.12 | 1.05
EPLC-272H | 0.299 | 0.352 | 0.143 | 0.314 | 0.284 | 0.684 | 0.575 | 0.694 | 0.887 | 0.875 | 0.387 | 0.379 | 0.267 | 0.259 | 0.236 | 0.347 | 0.365 | 0.266 | 0.521 | 0.606
H3255 | 0.576 | 0.603 | 0.633 | 0.677 | 0.527 | 0.79 | 0.818 | 0.903 | 0.844 | 0.978 | 0.797 | 0.795 | 0.995 | 0.867 | 1.04 | 0.895 | 0.799 | 1.01 | 0.917 | 1.07
HARA | 0.118 | 0.127 | 0.132 | 0.098 | 0.117 | 0.889 | 0.838 | 0.991 | 0.932 | 0.98 | 0.626 | – | 0.329 | 0.262 | 0.328 | 0.738 | 0.68 | 0.75 | 0.644 | 0.719
HCC-15 | 0.377 | – | 0.398 | 0.319 | 0.247 | 0.976 | – | 0.994 | 0.882 | 1.01 | 1.01 | – | 1.29 | 1.36 | 1.19 | 0.451 | – | 0.24 | 0.369 | 0.251
HCC-827 | 0.415 | 0.348 | 0.408 | 0.449 | 0.4 | 0.985 | 0.965 | 1.01 | 0.977 | 0.928 | 0.198 | 0.22 | 0.228 | 0.252 | 0.201 | 0.517 | 0.427 | 0.465 | 0.487 | 0.588
HOP-62 | 0.391 | – | 0.376 | 0.333 | 0.374 | 1.02 | – | 1.03 | 0.991 | 1.13 | 0.584 | – | 0.466 | 0.485 | 0.794 | 0.932 | – | 0.765 | 0.798 | 0.982
LC-2-ad | 0.483 | – | 0.516 | 0.391 | 0.487 | 0.859 | – | 0.905 | 1.01 | 0.962 | 0.808 | 0.634 | 0.88 | 0.855 | 0.806 | 1.12 | – | 0.912 | 1 | 0.951
LCLC-97TM1 | 0.289 | 0.196 | 0.181 | 0.19 | 0.227 | 0.848 | 0.842 | 0.948 | 0.939 | 0.949 | 0.275 | 0.257 | 0.152 | 0.223 | 0.234 | 0.701 | 0.517 | 0.772 | 0.718 | 0.784
LCLC-103H | 0.455 | 0.305 | 0.543 | 0.441 | 0.475 | 0.791 | 0.618 | 0.736 | 0.637 | 0.733 | 0.823 | 0.686 | 0.818 | 0.698 | 0.5 | 0.874 | 0.798 | 0.932 | 0.975 | 0.919
